Our source for the remaining activity values is paper PMC8645336, “Benchmarking a highly selective USP30 inhibitor for enhancement of mitophagy and pexophagy” (Life Science Alliance, 2021).

Holding throughout (assay): biochemical
Holding throughout (set-up): Ubiquigent DUB profiler selectivity panel, remaining enzyme activity as % of control
Common to all, as to conditions: read-out: % of control remaining

The target in one assay is T1, Ataxin3L (Homo sapiens, UniProt Q9H3M9).
T1 construct: gene ATXN3L
T1 sequence (Q9H3M9 1-355): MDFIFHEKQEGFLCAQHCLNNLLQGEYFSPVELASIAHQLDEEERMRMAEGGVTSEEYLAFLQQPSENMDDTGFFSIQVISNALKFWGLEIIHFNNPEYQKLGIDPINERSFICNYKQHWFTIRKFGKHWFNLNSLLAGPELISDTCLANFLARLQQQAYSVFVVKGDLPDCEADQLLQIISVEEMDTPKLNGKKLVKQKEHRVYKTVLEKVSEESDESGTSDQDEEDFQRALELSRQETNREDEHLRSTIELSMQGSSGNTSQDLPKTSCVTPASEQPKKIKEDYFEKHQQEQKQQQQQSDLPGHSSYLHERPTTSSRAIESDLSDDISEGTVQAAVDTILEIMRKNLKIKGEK
In outline:
(§1)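 In YFP-PRKN-overexpressing hTERT-RPE1 cells, 1 h antimycin A plus oligomycin A (1 μM each) with CMPD-39, then Western blot of TOMM20 ubiquitylation. Target engagement: 2 h compound, then 10 min HA-Ub-PA at 37°C, read as USP30 shift. DUB panel (>40 enzymes) screened at 1-100 μM.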

The next assay concerns the target T2, UCHL1 (Homo sapiens, UniProt P09936).
T2 sequence (P09936 1-223): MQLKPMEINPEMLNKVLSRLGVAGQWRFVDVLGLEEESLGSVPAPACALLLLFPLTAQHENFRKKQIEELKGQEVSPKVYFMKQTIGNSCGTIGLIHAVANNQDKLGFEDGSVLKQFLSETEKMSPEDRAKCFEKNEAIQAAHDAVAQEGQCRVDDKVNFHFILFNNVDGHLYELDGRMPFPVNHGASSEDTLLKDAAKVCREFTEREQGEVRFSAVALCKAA
In short, it runs like this: as §1

The target in a further assay is T3, UCHL3 (Homo sapiens, UniProt P15374).
T3 sequence (P15374 1-230): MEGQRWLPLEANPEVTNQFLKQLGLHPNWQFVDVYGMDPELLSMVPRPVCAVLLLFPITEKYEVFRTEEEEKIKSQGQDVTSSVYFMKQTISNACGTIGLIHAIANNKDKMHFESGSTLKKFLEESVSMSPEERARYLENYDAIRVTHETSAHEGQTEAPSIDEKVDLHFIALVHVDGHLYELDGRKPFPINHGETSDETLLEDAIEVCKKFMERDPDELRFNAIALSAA
In outline: as §1

The next assay has as its target USP12/UAF1/WDR20 (Homo sapiens, UniProt O75317). In short, it runs like this:
as §1

Another assay deals with T4, USP30 (Homo sapiens, UniProt Q70CQ3).
T4 sequence (Q70CQ3 1-517): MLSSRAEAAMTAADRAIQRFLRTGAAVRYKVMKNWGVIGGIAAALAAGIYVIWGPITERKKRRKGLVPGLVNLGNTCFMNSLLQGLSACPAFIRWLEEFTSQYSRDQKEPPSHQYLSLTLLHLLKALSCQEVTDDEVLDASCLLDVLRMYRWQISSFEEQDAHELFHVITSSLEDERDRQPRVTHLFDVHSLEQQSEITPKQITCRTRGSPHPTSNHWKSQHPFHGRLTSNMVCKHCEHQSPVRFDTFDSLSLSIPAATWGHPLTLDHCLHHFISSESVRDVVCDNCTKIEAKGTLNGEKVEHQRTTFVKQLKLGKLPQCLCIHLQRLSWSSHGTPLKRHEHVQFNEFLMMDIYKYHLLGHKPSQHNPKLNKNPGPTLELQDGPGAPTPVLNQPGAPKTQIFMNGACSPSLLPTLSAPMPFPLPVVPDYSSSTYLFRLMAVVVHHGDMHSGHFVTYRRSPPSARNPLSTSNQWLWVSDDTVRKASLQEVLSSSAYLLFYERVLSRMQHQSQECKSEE
In outline:
as §1

USP12/UAF1/WDR20, sequence (O75317 whole entry): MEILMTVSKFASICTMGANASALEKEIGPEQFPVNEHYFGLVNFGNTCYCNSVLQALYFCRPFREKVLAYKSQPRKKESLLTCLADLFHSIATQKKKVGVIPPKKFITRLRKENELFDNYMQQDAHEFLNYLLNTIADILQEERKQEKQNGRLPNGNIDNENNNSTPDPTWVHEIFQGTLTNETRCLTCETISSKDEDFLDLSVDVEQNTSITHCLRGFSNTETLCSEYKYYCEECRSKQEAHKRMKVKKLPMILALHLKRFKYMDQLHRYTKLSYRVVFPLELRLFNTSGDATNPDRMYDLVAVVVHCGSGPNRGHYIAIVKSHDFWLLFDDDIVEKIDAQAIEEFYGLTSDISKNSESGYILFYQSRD
USP12/UAF1/WDR20, sequence (Q8TAF3 whole entry partner): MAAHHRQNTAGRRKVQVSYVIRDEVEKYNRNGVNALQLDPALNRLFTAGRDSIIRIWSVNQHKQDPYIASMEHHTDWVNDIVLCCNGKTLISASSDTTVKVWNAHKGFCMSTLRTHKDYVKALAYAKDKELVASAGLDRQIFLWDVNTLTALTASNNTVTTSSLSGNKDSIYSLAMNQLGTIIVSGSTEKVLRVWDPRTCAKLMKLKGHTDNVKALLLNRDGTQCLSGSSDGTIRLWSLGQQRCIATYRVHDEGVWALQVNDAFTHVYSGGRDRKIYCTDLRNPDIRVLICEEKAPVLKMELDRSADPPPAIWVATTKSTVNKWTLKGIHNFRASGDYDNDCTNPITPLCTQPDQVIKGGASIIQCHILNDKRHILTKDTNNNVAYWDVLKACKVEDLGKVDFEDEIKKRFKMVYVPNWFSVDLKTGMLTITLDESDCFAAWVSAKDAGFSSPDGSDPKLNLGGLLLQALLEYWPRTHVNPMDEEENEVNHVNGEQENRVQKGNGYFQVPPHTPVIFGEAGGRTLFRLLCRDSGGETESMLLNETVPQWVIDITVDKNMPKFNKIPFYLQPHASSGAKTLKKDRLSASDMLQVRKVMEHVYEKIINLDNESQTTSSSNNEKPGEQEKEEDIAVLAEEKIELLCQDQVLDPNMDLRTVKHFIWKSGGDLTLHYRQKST
USP12/UAF1/WDR20, sequence (Q8TBZ3 whole entry partner): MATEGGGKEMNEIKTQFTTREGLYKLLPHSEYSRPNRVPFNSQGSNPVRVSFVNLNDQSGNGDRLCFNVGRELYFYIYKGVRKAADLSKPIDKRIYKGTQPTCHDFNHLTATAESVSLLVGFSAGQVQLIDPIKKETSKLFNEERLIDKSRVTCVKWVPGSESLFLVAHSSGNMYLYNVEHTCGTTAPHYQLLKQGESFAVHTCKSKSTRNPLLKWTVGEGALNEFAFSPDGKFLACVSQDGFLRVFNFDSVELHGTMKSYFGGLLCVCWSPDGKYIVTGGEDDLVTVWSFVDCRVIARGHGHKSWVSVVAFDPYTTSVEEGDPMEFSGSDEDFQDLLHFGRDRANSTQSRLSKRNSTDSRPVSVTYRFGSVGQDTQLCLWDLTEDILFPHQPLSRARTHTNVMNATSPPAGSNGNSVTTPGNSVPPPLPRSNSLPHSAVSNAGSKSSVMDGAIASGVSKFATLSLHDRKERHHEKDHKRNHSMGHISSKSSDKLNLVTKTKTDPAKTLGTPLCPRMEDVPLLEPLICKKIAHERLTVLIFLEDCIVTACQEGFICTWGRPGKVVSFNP

Consider `CC(C)(C)NS(=O)(=O)c1ccc(NC(=O)[C@H](Cc2ccccc2)NC(=O)c2ccc(F)cc2)cc1` [compound 39, CMPD-39], for which the remaining activity at 1 µM at Ataxin3L is 103%; on UCHL1, 103%; at UCHL3 it was 107%; on USP12/UAF1/WDR20 it was 114%; on USP30 it was 0.756%. For the same compound, the remaining activity at 10 µM at Ataxin3L was 101%; at UCHL1, 98.5%; on UCHL3 it was 98.8%; on USP12/UAF1/WDR20, 106%; at USP30 it was 0.5%. Also, the remaining activity at 100 µM at Ataxin3L came out at 102%; on UCHL1, 96.3%; at UCHL3 it was 97.6%; on USP12/UAF1/WDR20, 104%; at USP30, 3.27%.
